The target of test [1] is T1, Bromodomain-containing protein 4 (Homo sapiens, UniProt O60885). Kind of test: Inhibition of BRD4 (unknown origin) BD1 domain.
The target of another test is Histone deacetylase. Description: Inhibition of HDAC (unknown origin). In kind it is protein assay, Homo sapiens.
The target in test [2] is T1, Bromodomain-containing protein 4. Kind of test: Inhibition of human full length BRD4.
For test [3] the target is unchanged. Description: Induction of BRD4 degradation in human MV4-11 cells at 100 nM measured after 18 hrs relative to control. The format is cell-based.
The test system of another test is MV4-11. Description: Antitumor activity against human MV4-11 cells xenografted in mouse assessed as TGI at 1 mg/kg, po measured after 7 days relative to control. The format is functional. The settings on record: MV4-11, 168 h, time 7 day, read-out: TGI. Background: A xenograft is tissue or cells of one species grown in another, often human tumour cells in immunodeficient mice.

The target of test [4] is T1, Bromodomain-containing protein 4. Kind of test: Inhibition of BRD4 (unknown origin) BD1 domain incubated for 18 hrs.
For test [5] the target is unchanged. Kind of test: Induction of BRD4 (unknown origin) degradation at 100 nM relative to control.

pIC50: −log10 of the molar value.

As usually defined, the pIC50 is −log10 of the IC50, conventionally taken in molar units. The IC50 is the midpoint of a concentration-inhibition curve.

`Cc1sc2c(c1C)C(c1ccc(Cl)cc1)=N[C@@H](CC(=O)Nc1ccc(C(=O)NO)cc1)c1nnc(C)n1-2`: in test [1], the negative logarithm of the IC50 (pIC50) was 7.96. The molecule further yielded an IC50 against Histone deacetylase of 21 nM. Molecule `Cc1noc(C)c1-c1ccc2c(c1)c(Cc1ccc(F)cc1)cn2CCCCCCC(=O)NO` gave a pIC50 in test [2] of 8.30.

As for `Cc1sc2c(c1C)C(c1ccc(Cl)cc1)=N[C@@H](CC(=O)NCCCCNC(=O)COc1cccc3c1C(=O)N(C1CCC(=O)NC1=O)C3=O)c1nnc(C)n1-2` (some centres not stated), in test [3], the Activity turned out to be 87%. Consider `COc1nnc2ccc(N3CCC(c4ccc(OCCN5CCN(C)C(=O)[C@H]5C)cc4)CC3)nn12` [AZD-5153], for which the inhibition in vivo at 1 mg/kg with MV4-11 came out at 72%. In test [4], this molecule gave a pIC50 of 8.80. Molecule `Cc1ncsc1-c1ccc(CNC(=O)[C@@H]2C[C@@H](O)CN2C(=O)C(NC(=O)COCCOCCOCCNC(=O)C[C@@H]2N=C(c3ccc(Cl)cc3)c3c(sc(C)c3C)-n3c(C)nnc32)C(C)(C)C)cc1` (some centres not stated) registered an Activity in test [5] of 90%.

(Values after ChEMBL document CHEMBL5244243, “Novel strategies targeting bromodomain-containing protein 4 (BRD4) for cancer drug discovery” (Eur J Med Chem, 2020).)
